Test results reported in patent publication US11066369B2, “N-(pyridin-2-yl)pyridine-sulfonamide derivatives and their use in the treatment of disease” (Novartis AG, priority 2016, dated 2021).
pEC50: −log10 of the molar value. Structures can show the parent of a compound that is named as a salt. Where two headings read alike, the source gives them in different places.

Target: T1, horseradish peroxidase (HRP) tagged delF508-CFTR (Homo sapiens, UniProt P13569, DEL508-508)
T1 construct: expressed in transfected cells
Assay: Measurement of delF508-CFTR-HRP surface expression in CFBE41o- cells;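 as to DelF508-CFTR-HRP Amax %: percent efficacy relative to reference corrector lumacaftor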
Format: cell-based
Settings: CFBE41o- cells; for Emax: read-out: DelF508-CFTR-HRP Amax %; for pEC50: read-out: DelF508-CFTR-HRP EC50
Source text: Measurement of delF508-CFTR-HRP Surface Expression in CFBE41o-Cells
This assay quantifies the cell surface expressions of the mutant CFTR channel using an extracellular HRP tag.
A cellular assay was developed to measure surface expression of horseradish peroxidase (HRP) tagged delF508-CFTR in the human bronchial epithelial immortalized CFBE41o-cell line (Phuan, P. W., et al, (2014) Molecular Pharmacology 86:42-51). Specifically, the HRP sequence was inserted into the fourth extracellular loop of delF508-CFTR and stably expressed in CFBE41o-cells. Cells were seeded in 384 well plate at a density of 5000 cells/well and incubated at 37° C. for 12 to 24 hours in medium (Gibco MEM #11095, 10% FBS, 10 mM HEPES, […], 200 μg/mL G418, 3 μg/mL Puromycin). The delF508-CFTR-HRP expression was induced with 500 ng/mL doxycycline (Sigma D-9891, dissolved in H2O and sterile filtered) in medium and the cells were incubated at 37° C. for 48h. Old medium was removed and fresh medium was added containing 500 ng/mL doxycycline and unknown test compound at required test concentration in DMSO, not exceeding 0.5% final DMSO concentration. The highest concentration tested was 10 μM with a 10-point concentration response curve using a 3-fold dilution. After addition of compounds, the cells were incubated for 24h at 37° C. On the final day, cells were washed four times in PBS containing 1 mM MgCl2 and 0.1 mM CaCl2. HRP-Substrate (SuperSignal ELISA Pico, Fisher #37069) 20 μl/well was added and the luminescence signal was determined (Viewlux, Perkin Elmer). Light was emitted upon addition of exogenous HRP-Substrate only when delF508-CFTR-HRP reached the cell surface and the HRP tag was accessible to the HRP-Substrate (note: HRP-Substrate cannot cross the lipid bilayer to reach delF508-CFTR-HRP misfolded within the cell).
The median activity for the lowest concentration of the compounds on each assay plate was calculated and this value was used to normalize the signal for each well on the respective plate. Three replicates at each concentrations for every compound were run to determine one EC50. The median value was determined and used to calculate compound activities as described below. Effective half maximal values (EC50) were calculated for each compound by performing logistic regression on measured dose-response data points using the equation:
[formula] where “Y” is the observed activity, “Bottom” is the lowest observed value, “Top” is the highest observed value, and the “Hill coefficient” gives the largest absolute value of the slope. The curve fitting is carried out by a curve fitting program implemented at GNF using Matlab (Mathworks).
The dose response curves also were used to calculate Fold Change (FC) using the equation: […]
Compound efficacy relative to the reference compound 3-(6-(1-(2,2-difluorobenzo[d][1,3]dioxol-5-yl)cyclopropane-1-carboxamido)-3-methylpyridin-2-yl)benzoic acid was determined using the following formula: […]

[1] = delF508-CFTR-HRP surface expression
[2] = mean of at least two replicates

T1 sequence (P13569 with tags, fused parts or gaps DEL508-508): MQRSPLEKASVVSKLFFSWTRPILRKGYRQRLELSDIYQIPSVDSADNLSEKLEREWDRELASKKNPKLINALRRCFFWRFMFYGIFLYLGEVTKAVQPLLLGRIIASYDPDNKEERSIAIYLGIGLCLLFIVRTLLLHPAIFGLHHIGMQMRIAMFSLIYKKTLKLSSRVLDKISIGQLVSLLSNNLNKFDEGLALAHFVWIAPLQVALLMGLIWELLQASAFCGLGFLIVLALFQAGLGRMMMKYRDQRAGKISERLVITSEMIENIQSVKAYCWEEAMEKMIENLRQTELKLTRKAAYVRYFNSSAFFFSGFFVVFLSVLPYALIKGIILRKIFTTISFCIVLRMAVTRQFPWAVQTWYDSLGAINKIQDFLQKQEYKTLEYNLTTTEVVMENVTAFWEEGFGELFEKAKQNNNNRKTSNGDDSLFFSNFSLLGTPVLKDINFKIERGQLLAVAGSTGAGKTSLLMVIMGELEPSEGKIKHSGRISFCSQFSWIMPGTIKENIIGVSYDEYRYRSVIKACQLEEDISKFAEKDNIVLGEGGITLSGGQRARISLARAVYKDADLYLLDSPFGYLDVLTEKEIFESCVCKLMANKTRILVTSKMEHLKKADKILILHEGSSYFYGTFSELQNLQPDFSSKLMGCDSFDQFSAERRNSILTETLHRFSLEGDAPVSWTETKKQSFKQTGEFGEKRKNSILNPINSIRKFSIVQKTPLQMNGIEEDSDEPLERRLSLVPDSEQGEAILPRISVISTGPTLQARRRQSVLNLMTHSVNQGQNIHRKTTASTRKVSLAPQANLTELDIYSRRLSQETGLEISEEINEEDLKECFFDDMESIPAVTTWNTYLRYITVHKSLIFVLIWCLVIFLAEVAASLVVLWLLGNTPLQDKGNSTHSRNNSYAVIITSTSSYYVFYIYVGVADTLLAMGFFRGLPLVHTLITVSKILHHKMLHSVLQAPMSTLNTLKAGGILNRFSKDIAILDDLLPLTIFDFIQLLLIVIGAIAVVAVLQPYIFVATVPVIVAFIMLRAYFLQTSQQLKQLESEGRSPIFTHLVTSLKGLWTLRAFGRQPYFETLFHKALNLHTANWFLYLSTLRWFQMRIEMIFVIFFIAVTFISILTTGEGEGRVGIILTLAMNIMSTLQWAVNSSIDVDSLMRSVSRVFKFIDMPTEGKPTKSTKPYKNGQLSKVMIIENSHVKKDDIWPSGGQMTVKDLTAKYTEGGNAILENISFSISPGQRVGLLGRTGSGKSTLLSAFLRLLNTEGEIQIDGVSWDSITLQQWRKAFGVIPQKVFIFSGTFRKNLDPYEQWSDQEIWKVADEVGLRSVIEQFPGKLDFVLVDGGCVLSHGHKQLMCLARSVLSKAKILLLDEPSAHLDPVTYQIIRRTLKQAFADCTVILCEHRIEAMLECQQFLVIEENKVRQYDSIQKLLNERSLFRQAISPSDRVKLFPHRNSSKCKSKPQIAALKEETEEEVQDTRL

Row | Structure (SMILES) | Emax [1] | pEC50 [1] | pEC50 [2] | Emax (surface expression Amax)
1 | Cc1cccc(C)c1-c1cc(C(F)(F)F)cc(NS(=O)(=O)c2cccc(N3CCN(C(=O)OC(C)(C)C)CC3)n2)n1 [Example 132, tert-butyl 4-(6-(N-(6-(2,6-dimethylphenyl)-4-(trifluoromethyl)pyridin-2-yl)sulfamoyl)pyridin-2-yl)piperazine-1-carboxylate] | 894% | 6.10 | – | –
2 | Cc1ccccc1-c1nc(NS(=O)(=O)c2cccc(N3CCC[C@](C)(C(=O)O)C3)n2)ccc1C(F)(F)F [Example 428, (3S)-3-methyl-1-(6-{[6-(2-methylphenyl)-5-(trifluoromethyl)pyridin-2-yl]sulfamoyl}pyridin-2-yl)piperidine-3-carboxylic Acid] | – | – | 5.77 | 713%
3 | N#Cc1ccccc1-c1nc(NS(=O)(=O)c2cccc(N)n2)ccc1Cl [Example 90, 6-amino-N-(5-chloro-6-(2-cyanophenyl)pyridin-2-yl)pyridine-2-sulfonamide] | 50% | 5.42 | – | –
4 | Cc1cccc(C)c1-c1nc(NS(=O)(=O)c2cccc(N)n2)ccc1F [Example 9, 6-amino-N-(6-(2,6-dimethylphenyl)-5-fluoropyridin-2-yl)pyridine-2-sulfonamide] | 597% | 5.82 | – | –
5 | COc1ccccc1-c1nc(NS(=O)(=O)c2cccc(N)n2)ccc1Cl [Example 76, 6-amino-N-(5-chloro-6-(2-methoxyphenyl)pyridin-2-yl)pyridine-2-sulfonamide] | 156% | 5.64 | – | –
6 | Cc1cc(C#N)ccc1-c1nc(NS(=O)(=O)c2ccnc(N)c2)ccc1Cl [Example 92, 2-amino-N-(5-chloro-6-(4-cyano-2-methylphenyl)pyridin-2-yl)pyridine-4-sulfonamide] | 23.9% | 5.96 | – | –
7 | Cc1ccc(F)cc1-c1nc(NS(=O)(=O)c2ccnc(N3CCNCC3)c2)ccc1Cl [Example 327, N-(5-chloro-6-(5-fluoro-2-methylphenyl)pyridin-2-yl)-2-(piperazin-1-yl)pyridine-4-sulfonamide] | 92.5% | 5.37 | – | –
8 | COc1ccc(Cl)cc1-c1nc(NS(=O)(=O)c2cccc(N3CCC[C@@](C)(C(=O)O)C3)n2)ccc1C(F)(F)F [Example 455, (R)-1-(6-(N-(6-(5-chloro-2-methoxyphenyl)-5-(trifluoromethyl)pyridin-2-yl)sulfamoyl)pyridin-2-yl)-3-methylpiperidine-3-carboxylic Acid] | – | – | 5.75 | 899%
9 | Nc1cccc(S(=O)(=O)Nc2ccc(Cl)c(-c3ccccc3Cl)n2)n1 [Example 24, 6-amino-N-(5-chloro-6-(2-chlorophenyl)pyridin-2-yl)pyridine-2-sulfonamide] | 485% | 5.84 | – | –
10 | CCCC1(C(=O)O)CCCN(c2cccc(S(=O)(=O)Nc3ccc(Cl)c(-c4c(C)cccc4C)n3)n2)C1 (stereo not shown) [Example 457, 1-(6-(N-(5-chloro-6-(2,6-dimethylphenyl)pyridin-2-yl)sulfamoyl)pyridin-2-yl)-3-propylpiperidine-3-carboxylic Acid] | – | – | 6.21 | 702%
11 | COc1ccc(Cl)c(-c2nc(NS(=O)(=O)c3cccc(N4CCC[C@@H](C(=O)O)C4)n3)ccc2C(F)(F)F)c1 [Example 449, (R)-1-(6-(N-(6-(2-chloro-5-methoxyphenyl)-5-(trifluoromethyl)pyridin-2-yl)sulfamoyl)pyridin-2-yl)piperidine-3-carboxylic Acid] | – | – | 5.63 | –
12 | COc1ccc(NS(=O)(=O)c2cccc(N3CCC[C@@](C)(C(=O)O)C3)n2)nc1-c1ccccc1C1CC1 [Example 408, (R)-1-(6-(N-(6-(2-cyclopropylphenyl)-5-methoxypyridin-2-yl)sulfamoyl)pyridin-2-yl)-3-methylpiperidine-3-carboxylic Acid] | – | – | 5.70 | 271%
13 | C[C@@]1(C(=O)O)CCCN(c2cccc(S(=O)(=O)Nc3ccc(Cl)c(-c4ccccc4C4CC4)n3)n2)C1 [Example 437, (R)-1-(6-(N-(5-chloro-6-(2-cyclopropylphenyl)pyridin-2-yl)sulfamoyl)pyridin-2-yl)-3-methylpiperidine-3-carboxylic Acid] | – | – | 5.81 | 869%
14 | CC1(C(=O)O)CCCN(c2cccc(S(=O)(=O)Nc3ccc(C(F)(F)F)c(-c4ccccc4CO)n3)n2)C1 (stereo not shown) [Example 444, 1-(6-(N-(6-(2-(hydroxymethyl)phenyl)-5-(trifluoromethyl)pyridin-2-yl)sulfamoyl)pyridin-2-yl)-3-methylpiperidine-3-carboxylic Acid] | – | – | 5.39 | 47.5%
15 | Cc1ccc(F)c(-c2nc(NS(=O)(=O)c3cccc(N)n3)ccc2Cl)c1Cl [Example 58, 6-amino-N-(5-chloro-6-(2-chloro-6-fluoro-3-methylphenyl)pyridin-2-yl)pyridine-2-sulfonamide] | 270% | 5.75 | – | –
16 | CC(C)c1ccccc1-c1nc(NS(=O)(=O)c2ccc(N)nc2)ccc1Cl [Example 45, 6-amino-N-(5-chloro-6-(2-isopropylphenyl)pyridin-2-yl)pyridine-3-sulfonamide] | 345% | 5.91 | – | –
17 | Nc1cccc(S(=O)(=O)Nc2ccc(Cl)c(-c3ccccc3C(F)F)n2)n1 [Example 65, 6-amino-N-(5-chloro-6-(2-(difluoromethyl)phenyl)pyridin-2-yl)pyridine-2-sulfonamide] | 220% | 5.81 | – | –
18 | COc1ccc(NS(=O)(=O)c2cccc(N)n2)nc1-c1c(C)cccc1C [Example 72, 6-amino-N-(6-(2,6-dimethylphenyl)-5-methoxypyridin-2-yl)pyridine-2-sulfonamide hydrochloride] | 193% | 5.47 | – | –
19 | Cc1ccccc1-c1nc(NS(=O)(=O)c2cccc(N3CCN[C@@H](C(=O)O)C3)n2)ccc1C(F)(F)F [Example 341, (2R)-4-(6-{[6-(2-methylphenyl)-5-(trifluoromethyl)pyridin-2-yl]sulfamoyl}pyridin-2-yl)piperazine-2-carboxylic Acid] | 89.2% | 5.52 | – | –
20 | CCOC(=O)C1(C)CCN(c2cccc(S(=O)(=O)Nc3ccc(C(F)(F)F)c(-c4cccc(F)c4C)n3)n2)CC1 [Example 258, ethyl 1-(6-{[6-(3-fluoro-2-methylphenyl)-5-(trifluoromethyl)pyridin-2-yl]sulfamoyl}pyridin-2-yl)-4-methylpiperidine-4-carboxylate] | 828% | 5.86 | – | –
21 | Cc1ccccc1-c1nc(NS(=O)(=O)c2ccc(N)nc2)ccc1Cl [Example 40, 6-amino-N-(5-chloro-6-(o-tolyl)pyridin-2-yl)pyridine-3-sulfonamide] | 373% | 5.63 | – | –
22 | Cc1ccc(F)cc1-c1nc(NS(=O)(=O)c2cccc(N3CCN4CC[C@H]3C4)n2)ccc1C(F)(F)F [Example 202, 6-((5S)-1,4-diazabicyclo[3.2.1]octan-4-yl)-N-(6-(5-fluoro-2-methylphenyl)-5-(trifluoromethyl)pyridin-2-yl)pyridine-2-sulfonamide] | 159% | 5.41 | – | –
23 | COC(=O)C1(O)CCN(c2cccc(S(=O)(=O)Nc3ccc(Cl)c(-c4c(C)cccc4C)n3)n2)CC1 [Example 260, methyl 1-(6-{[5-chloro-6-(2,6-dimethylphenyl)pyridin-2-yl]sulfamoyl}pyridin-2-yl)-4-hydroxypiperidine-4-carboxylate] | 59.8% | 5.42 | – | –
24 | Cc1ccccc1-c1nc(NS(=O)(=O)c2cccc(N[C@H]3CC[C@H](C(=O)O)CC3)n2)ccc1C(F)(F)F [Example 364, (1r,4r)-4-((6-(N-(6-(o-tolyl)-5-(trifluoromethyl)pyridin-2-yl)sulfamoyl)pyridin-2-yl)amino)cyclohexanecarboxylic Acid] | 231% | 5.80 | – | –
25 | CC1(C(=O)O)CCN(c2cccc(S(=O)(=O)Nc3ccc(C(F)(F)F)c(-c4ccc(F)cc4Cl)n3)n2)CC1 [Example 240, 1-(6-(N-(6-(2-chloro-4-fluorophenyl)-5-(trifluoromethyl)pyridin-2-yl)sulfamoyl)pyridin-2-yl)-4-methylpiperidine-4-carboxylic Acid] | 385% | 5.47 | – | –
